Test systems include T-47D breast; MDA-MB-435; NCI/ADR-RES ovarian; BT-549 breast; HS 578T breast; LXFL 529 NSCLC; KM20L2 colon; SNB-78 CNS; DMS 114 small cell lung; HOP-18 NSCLC.
Holding throughout (test): NCI-60 cell line screen, 48 h

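Following 48 hours of exposure in 96-well plates, responses at five concentrations were used to interpolate endpoints linearly. At the GI50, growth is halved. TGI denotes the concentration required for complete inhibition of growth.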

For the molecule `CCOc1ccc2c(-c3ccnc(Nc4cccc(C(F)(F)F)c4)n3)cnn2n1`, the GI50 with T-47D breast was 1.4 µM; in the assay on MDA-MB-435, 9.93 µM; in the assay on NCI/ADR-RES ovarian it was 9.04 µM; in the assay on BT-549 breast it was greater than 23.8 µM; in the assay on HS 578T breast, greater than 20.2 µM. Also, the TGI in the assay on T-47D breast, in the assay with MDA-MB-435, in the assay with NCI/ADR-RES ovarian, in the assay on BT-549 breast and in the assay on HS 578T breast was greater than 25 µM each time.

With `CC(C)c1cccc2sc(NC(=O)C(=O)CC(=O)c3ccc(F)cc3)nc12`, the TGI in the assay with LXFL 529 NSCLC, in the assay on KM20L2 colon, in the assay with SNB-78 CNS and in the assay on DMS 114 small cell lung was greater than 100 µM each time.

In the case of `CNC1=C(Br)C(=O)C2=C(C1=O)C1C3=C(C(=O)C=CC3=O)C2c2ccccc21` (stereo unspecified), the GI50 with T-47D breast is 2.9 µM; in the assay on MDA-MB-435, 6.59 µM; in the assay with NCI/ADR-RES ovarian, 4.68 µM; in the assay with BT-549 breast, 2.45 µM; in the assay with HS 578T breast it was 12.7 µM. For the same molecule, the TGI with T-47D breast was greater than 40.3 µM; with MDA-MB-435 it was 14.7 µM; in the assay on NCI/ADR-RES ovarian, 13.4 µM; in the assay on BT-549 breast, 5.98 µM; in the assay on HS 578T breast, 70.3 µM.

As for `COc1ccc(S(=O)(=O)N2CCCCC2)cc1NC(=O)c1[nH]c(C)c2c1CCCCC2=O`, the GI50 with T-47D breast is 1.41 µM; in the assay with MDA-MB-435, 2.49 µM; in the assay with NCI/ADR-RES ovarian it was 3.67 µM; in the assay with BT-549 breast, 4 µM; in the assay on HS 578T breast, 1.45 µM. For the same molecule, the TGI in the assay on T-47D breast is 46.9 µM; in the assay with MDA-MB-435, greater than 100 µM; with NCI/ADR-RES ovarian, greater than 100 µM; with BT-549 breast, greater than 100 µM; with HS 578T breast, greater than 100 µM.

Take `Cc1occc1C(=S)Nc1ccc(Cl)c(C(=O)OCC2CC2)c1`: the TGI in the assay on T-47D breast is greater than 100 µM; with MDA-MB-435 it was greater than 100 µM; in the assay with NCI/ADR-RES ovarian, greater than 100 µM; with BT-549 breast it was 81.5 µM; in the assay with HS 578T breast it was greater than 100 µM.

Turning to `CCCN(CCC)c1ccc(C=O)c(OC)c1`, the GI50 with T-47D breast is 12.5 µM; in the assay with MDA-MB-435, 20 µM; in the assay with NCI/ADR-RES ovarian, 28.9 µM; in the assay on BT-549 breast it was 22 µM; in the assay with HS 578T breast, 15.5 µM. The TGI with T-47D breast was 57.5 µM; with MDA-MB-435 it was 78.9 µM; in the assay on NCI/ADR-RES ovarian it was greater than 100 µM; in the assay with BT-549 breast, 80.2 µM; in the assay on HS 578T breast it was 94.4 µM.

As to `[O-]c1c(-c2ccccc2)[se]c(-c2ccccc2)[n+]1-c1ccccc1`, the TGI with LXFL 529 NSCLC was determined as 27.8 µM; in the assay with HOP-18 NSCLC, 25.6 µM; in the assay on SNB-78 CNS it was 14 µM; in the assay on DMS 114 small cell lung, 18.7 µM.

`Cn1c(-c2c(N)n(Cc3ccc(Cl)cc3)c3nc(C#N)c(C#N)nc23)nc2ccccc21`: the GI50 in the assay on T-47D breast is 1.83 µM; in the assay with MDA-MB-435, 7.63 µM; in the assay on NCI/ADR-RES ovarian it was 2.36 µM; in the assay on BT-549 breast it was 6.44 µM; in the assay on HS 578T breast, 4 µM. Also, the TGI with T-47D breast was 14.5 µM; in the assay with MDA-MB-435, greater than 50 µM; with NCI/ADR-RES ovarian it was 10.8 µM; in the assay with BT-549 breast, 15.6 µM; in the assay on HS 578T breast it was 24.5 µM.

With `C/C(=C\c1ccccc1)C(O)S(=O)(=O)O` (stereo unspecified), the TGI in the assay on LXFL 529 NSCLC, in the assay on KM20L2 colon, with HOP-18 NSCLC and with DMS 114 small cell lung was greater than 100 µM each time.

Consider `Cc1ccc(S(=O)(=O)NC(C)C(=O)O)cc1` (stereo unspecified), for which the TGI with LXFL 529 NSCLC, in the assay on KM20L2 colon and with HOP-18 NSCLC was greater than 100 µM each time.

Take `C[C@]1(O)CC(=O)[C@]2(O)C3=C(C=C[C@]2(O)C1)C(=O)c1c(O)cccc1C3=O`: the GI50 was 1.85 µM in the assay with T-47D breast; 1.85 µM in the assay on MDA-MB-435; 5.84 µM with NCI/ADR-RES ovarian; 2.62 µM in the assay on BT-549 breast; 2.74 µM in the assay with HS 578T breast. Besides, the TGI in the assay on T-47D breast turned out to be 4.57 µM; with MDA-MB-435, 3.44 µM; with NCI/ADR-RES ovarian, 40.3 µM; with BT-549 breast it was 9.44 µM; with HS 578T breast it was 14.7 µM.

As to `CN1C(=O)NC2(O)c3ccccc3C(=O)C12O` (stereo unspecified), the TGI in the assay with LXFL 529 NSCLC, in the assay on KM20L2 colon, with SNB-78 CNS and with DMS 114 small cell lung was greater than 100 µM in each case.

As to `CC1=C(CC/C(C)=C/CCC2(C)CCC([C@H](C)C(=O)O)OO2)C(C)(C)CCC1` (stereo partly specified) (tested in a mixture with another compound), the TGI in the assay with LXFL 529 NSCLC, with KM20L2 colon, in the assay with SNB-78 CNS and in the assay on DMS 114 small cell lung was greater than 100 µM each time.

On to `CCCCn1c(=O)c(/C=C/C(=O)/C=C/c2ccc(O)c(OC)c2)cc2ccc(Cl)cc21`, for which the GI50 was 1.85 µM with T-47D breast; 1.77 µM in the assay on MDA-MB-435; 2.9 µM in the assay on NCI/ADR-RES ovarian; 1.76 µM with BT-549 breast; 3.18 µM in the assay on HS 578T breast. Besides, the TGI in the assay with T-47D breast came out at 6.28 µM; with MDA-MB-435 it was 4.17 µM; in the assay with NCI/ADR-RES ovarian, 10.7 µM; with BT-549 breast it was 4.25 µM; in the assay on HS 578T breast, 14.8 µM.

As for `COC(=O)c1c(C(=O)OC)c(C(=O)OC)c(C(=O)OC)c1C(=O)OC`, the TGI in the assay with LXFL 529 NSCLC, in the assay on KM20L2 colon, in the assay with HOP-18 NSCLC and in the assay with DMS 114 small cell lung was greater than 100 µM throughout.

Regarding `COc1cc2c3c(n(CCCn4cccn4)c(=O)c2cc1OC)-c1cc2c(cc1C3=O)OCO2`, the GI50 in the assay with T-47D breast was 2.2 µM; in the assay with MDA-MB-435 it was 6.23 µM; in the assay with NCI/ADR-RES ovarian it was 1.3 µM; with BT-549 breast, 3.4 µM; in the assay with HS 578T breast, 22.7 µM. Besides, the TGI in the assay with T-47D breast is greater than 100 µM; in the assay on MDA-MB-435, 39.2 µM; in the assay on NCI/ADR-RES ovarian, 16.5 µM; in the assay with BT-549 breast it was greater than 70 µM; with HS 578T breast, greater than 90.7 µM.

On to `CN1NC(c2ccccc2)=C(C#N)C(=O)CC1c1ccccc1Cl` (stereo unspecified), for which the TGI with LXFL 529 NSCLC, in the assay on HOP-18 NSCLC, in the assay on SNB-78 CNS and in the assay with DMS 114 small cell lung was greater than 100 µM in each case.

The values above are taken from PubChem BioAssay (NCI).
